Results as given in the supplement of paper PMC10307832.

How the values were obtained:
Assay in all cases: relative viability (nuclei count vs DMSO), 5 days (fraction); higher = more cells survive
[1] = compound: COc1cc2c(Oc3ccc4[nH]c(C)cc4c3F)ncnc2cc1OCCCN1CCCC1 [Cediranib] + COc1cccc2cc(-c3nc([C@H]4CC[C@H](C(=O)O)CC4)n4ncnc(N)c34)[nH]c12 [OSI-027] (partner 0.5 µM)
Summary of the method: (§1)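 Cells from lung cancer lines were seeded into 1536-well plates and, one day later, dosed by pin tool. Treatments were either a single drug or a fixed dose of an anchor drug with five library-drug doses (not always all listed) in √10 steps. After 5 days, nuclei were stained in a one-step fixation (final 0.05% Triton X-100, 1% formaldehyde, 1 ug/ml Hoechst) and counted on 4× images, and relative viability is the treated-to-vehicle nuclei ratio, as the median of duplicate plates.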

[2] = compound: O=C(C[C@H]1NCCC[C@@H]1O)Cn1cnc2cc(Br)c(Cl)cc2c1=O (racemic) [Halofuginone] + CC(=O)Nc1cccc(-n2c(=O)n(C3CC3)c(=O)c3c(Nc4ccc(I)cc4F)n(C)c(=O)c(C)c32)c1 [Trametinib] (partner 0.02 µM)
Summary of the method: as §1

[3] = compound: O=C(C[C@H]1NCCC[C@@H]1O)Cn1cnc2cc(Br)c(Cl)cc2c1=O (racemic) [Halofuginone] + CC1(C)CCC(c2ccc(Cl)cc2)=C(CN2CCN(c3ccc(C(=O)NS(=O)(=O)c4ccc(N[C@H](CCN5CCOCC5)CSc5ccccc5)c(S(=O)(=O)C(F)(F)F)c4)cc3)CC2)C1 [Navitoclax] (partner 0.5 µM)
Summary of the method: as §1

[4] = compound: O=C(C[C@H]1NCCC[C@@H]1O)Cn1cnc2cc(Br)c(Cl)cc2c1=O (racemic) [Halofuginone] + Nc1ncn([C@H]2C[C@H](O)[C@@H](CO)O2)c(=O)n1 [Decitabine] (partner 2 µM)
Summary of the method: as §1

## UMC-11
[1]; first compound 0.04 µM
  relative viability: 0.461
[1]; first compound 0.4 µM
  relative viability: 0.473
[1]; first compound 4 µM
  relative viability: 0.488
[2]; first compound 0.001 µM
  relative viability: 0.8
[2]; first compound 0.003162 µM
  relative viability: 0.791
[2]; first compound 0.01 µM
  relative viability: 0.782
[2]; first compound 0.03162 µM
  relative viability: 0.603
[2]; first compound 0.1 µM
  relative viability: 0.456
[3]; first compound 0.001 µM
  relative viability: 0.325
[3]; first compound 0.003162 µM
  relative viability: 0.314
[3]; first compound 0.01 µM
  relative viability: 0.324
[3]; first compound 0.03162 µM
  relative viability: 0.26
[3]; first compound 0.1 µM
  relative viability: 0.138
[4]; first compound 0.001 µM
  relative viability: 0.646
[4]; first compound 0.003162 µM
  relative viability: 0.848
[4]; first compound 0.01 µM
  relative viability: 0.59
[4]; first compound 0.03162 µM
  relative viability: 0.604
[4]; first compound 0.1 µM
  relative viability: 0.426
